Earlier results, collected in patent US20080262249A1, “Psorospermin and Analogues” (priority 2004, published 2008).

What was measured:
[1] = biological target: T1, topoisomerase II-DNA complex (Drosophila melanogaster, UniProt P15348)
T1 sequence (P15348 1-1447): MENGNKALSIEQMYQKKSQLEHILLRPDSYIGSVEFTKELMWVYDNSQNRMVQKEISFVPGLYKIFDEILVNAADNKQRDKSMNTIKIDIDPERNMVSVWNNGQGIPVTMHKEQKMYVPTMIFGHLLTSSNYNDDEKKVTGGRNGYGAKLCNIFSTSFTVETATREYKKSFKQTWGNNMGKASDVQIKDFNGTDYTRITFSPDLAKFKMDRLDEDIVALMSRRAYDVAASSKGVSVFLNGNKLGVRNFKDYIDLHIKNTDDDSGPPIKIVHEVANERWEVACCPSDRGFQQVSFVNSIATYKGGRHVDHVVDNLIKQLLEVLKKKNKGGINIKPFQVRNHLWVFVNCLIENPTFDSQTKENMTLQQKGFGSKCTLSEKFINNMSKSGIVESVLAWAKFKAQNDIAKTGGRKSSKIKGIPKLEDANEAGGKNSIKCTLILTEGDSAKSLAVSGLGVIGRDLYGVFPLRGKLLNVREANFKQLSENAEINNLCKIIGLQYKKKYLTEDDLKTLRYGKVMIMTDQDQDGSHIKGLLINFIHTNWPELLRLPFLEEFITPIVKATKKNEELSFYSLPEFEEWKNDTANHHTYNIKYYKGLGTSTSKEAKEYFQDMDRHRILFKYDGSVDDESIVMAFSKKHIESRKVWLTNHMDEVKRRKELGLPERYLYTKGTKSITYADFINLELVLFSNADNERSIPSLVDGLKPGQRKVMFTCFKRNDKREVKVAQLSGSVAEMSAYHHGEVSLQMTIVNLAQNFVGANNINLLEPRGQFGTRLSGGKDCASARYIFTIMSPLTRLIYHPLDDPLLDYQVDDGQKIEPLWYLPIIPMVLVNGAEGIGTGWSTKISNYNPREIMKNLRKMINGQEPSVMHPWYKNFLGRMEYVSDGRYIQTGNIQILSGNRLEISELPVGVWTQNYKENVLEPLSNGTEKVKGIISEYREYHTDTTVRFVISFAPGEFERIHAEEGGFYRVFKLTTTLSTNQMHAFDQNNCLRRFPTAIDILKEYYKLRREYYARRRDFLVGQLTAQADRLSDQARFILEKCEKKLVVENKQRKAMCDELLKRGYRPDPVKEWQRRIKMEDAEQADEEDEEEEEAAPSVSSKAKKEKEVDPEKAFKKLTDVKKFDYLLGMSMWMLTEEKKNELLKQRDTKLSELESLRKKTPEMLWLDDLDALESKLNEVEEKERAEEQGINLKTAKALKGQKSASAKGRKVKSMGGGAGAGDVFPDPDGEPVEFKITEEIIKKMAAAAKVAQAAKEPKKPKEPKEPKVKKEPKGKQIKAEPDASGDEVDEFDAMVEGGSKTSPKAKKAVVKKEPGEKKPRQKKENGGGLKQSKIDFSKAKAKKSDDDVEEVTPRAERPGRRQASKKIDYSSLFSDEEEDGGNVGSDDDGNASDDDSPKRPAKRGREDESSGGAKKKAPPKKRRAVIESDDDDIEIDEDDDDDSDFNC

[2] = biological target: T1, topoisomerase II-DNA complex; remark: listed apart in the source

| SMILES | effect of increasing topoisomerase II concentration on DNA alkylation ([1]; increasing topoisomerase II concentration) | enhancement of psorospermin alkylation at site A by topoisomerase II ([1]; site A) | enhancement of psorospermin alkylation at site B by topoisomerase II ([1]; site B, guanine at +4′ position) | reversibility of stimulated topoisomerase II-induced DNA cleavage ([2]; addition of excess salt) | psorospermin-induced DNA cleavage by topoisomerase II, maximum ([2]; site B, 10 μM drug concentration) |
| --- | --- | --- | --- | --- | --- |
| C/C=C\C1OC1(C)c1cc(=O)c2c(C)cc3c(c2o1)C(=O)c1c(O)c([C@H]2C[C@](C)(N(C)C)[C@@H](OC(C)=O)[C@@H](C)O2)cc([C@@H]2C[C@H](N(C)C)[C@@H](O)[C@@H](C)O2)c1C3=O (some centres unmarked) [pluramycin, reference compound] | inhibited | – | – | – | – |
| COc1cc2c(c3oc4c(O)cccc4c(=O)c13)C[C@H]([C@@]1(C)CO1)O2 [psorospermin] | – | 3 fold | 25 fold | slowly reversed | 3 fold |
